In PubChem BioAssay AID1963831 (Molecular Pharmacology Branch, DTP, NCI, 2024) one finds viability, T/C data, which are given here for three compounds.

Molecules are shown by their SMILES.
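Also: spheroids exposed to compounds for seven days.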

One assay concerns 889142-216-R-J1-PDC complex spheroid viability. Kind of assay: Anticancer human tumor 889142-216-R-J1-PDC patient-derived bladder carcinoma cell line growth inhibition [POLQ]. To be noted: second compound 3.16 µM; first compound 0.1 µM; stronger effect = lower value. The method, then:
Multicellular complex tumor spheroid response to Polymerase (POL) inhibitors (novobiocin, ART-558, RP6685) in combination with a variety of drugs and investigational agents in selected tumor cell lines
The POL inhibitors (novobiocin, ART-558, and RP6685) were evaluated both individually and in combination with standard of care and investigational anticancer small molecules within a complex spheroid model of solid tumors. . Complex spheroids include a stromal component modeled by human endothelial cells (HUVEC) and fibroblasts modeled by human mesenchymal stem cells (MSCs). The concentration ranges selected for each drug and investigational agent were based upon clinically achievable concentrations if the clinical Cmax of the agent was known.
Compounds. The drugs and investigational agents: novobiocin (NSC847541), ART-558 (NSC835418), RP-6685 (NSC848927), peposertib (NSC802822), ceralasertib (NSC780249), elimusertib (NSC800525), camonsertib (NSC841442), AZD-1390 (NSC803789), olaparib (NSC753686), talazoparib (NSC767125), rucaparib (NSC756644), sotorasib (NSC818433), MRTX-1133 (NSC836407), SN-38 (NSC673596), topotecan (NSC609699), epotoside (NSC141540), doxorubicin (NSC123127), gemcitabine (NSC613327), 5-fluorouracil (NSC19893), paclitaxel (NSC125973), vemurafenib (NSC761431), MSA-2 (NSC828583), SN-011 (NSC837082), adavosertib (NSC754352), prexasertib (NSC758257), carboplatin (NSC241240) and oxaliplatin (NSC266046), were obtained from the National Cancer Institute (NCI) Developmental Therapeutics Program Chemical Repository (21). The FDA-approved anticancer drug set is available from the Developmental Therapeutics Program at https://dtp.cancer.gov/organization/dscb/obtaining/. […] The stock solutions were prepared in dimethyl sulfoxide (DMSO, Sigma-Aldrich, St. Louis, MO, cat. D2650), except for the platinum compounds which were prepared in saline (Quality Biological, Gaithersburg, MD, cat. 114-055-101), at 800-fold the tested concentration and stored at -70 degrees C prior to their use. All drugs and investigational agents were tested over a range starting from a high concentration at or near the clinical Cmax and decreasing in half-log increments. If the clinical Cmax for an agent had not been determined, the highest concentration tested was 10 microM, except for SN-38, which was tested at a high concentration of 1 microM.
Cell Culture. All cells were maintained in an incubator at 37 degrees C and 5% CO2 with 95% humidity. The PDC lines were cultured according to standard operating procedures established by the NCI PDMR (https://pdmr.cancer.gov). Table 3 of the manuscript, lists the cell lines along with the number of the three cell types plated to form the mct-spheroids and media for tumor cell growth. After thawing, all PDC lines, except 997537-175-T-J1-PDC and 415267-285-R-J2-PDC, were cultured in Matrigel-coated flasks prepared with a working solution of 1X Ham's F-12 nutrient mix, without supplementation (Thermo Fisher Scientific, cat. 11765054), 100 U/mL penicillin-streptomycin (Thermo Fisher Scientific, cat. 15140122), and 2.5% Matrigel (Corning Inc., Corning, NY, cat. 354248) for the first three passages. The two PDC lines 997537-175-T-J1-PDC and 415267-285-R-J2-PDC were cultured on uncoated flasks. The 857933-349-R-J2-PDC line was cultured in 6C/Colon 1B media containing advanced DMEM/F-12 (Thermo Fisher Scientific, cat. 12634028), 10 mM HEPES (Thermo Fisher Scientific, cat. 15630080), 1X GlutaMAX supplement (Thermo Fisher Scientific, cat. 35050061), 0.1 mg/mL primocin (InvivoGen, San Diego, CA, cat. ant-pm-2), 10% defined fetal bovine serum, heat inactivated (HyClone Laboratories Inc., Logan, UT, cat. SH30070.03HI), 50% L-WRN conditioned media (ATCC, cat. CRL-3276), 1.25 mM N-Acetyl-L-cysteine (Sigma-Aldrich, cat. A9165), 10 mM nicotinamide (Sigma-Aldrich, cat. N0636), 1X B-27 supplement (Thermo Fisher Scientific, cat. 17504044), 1X N-2 supplement (Thermo Fisher Scientific, cat. […]
Consider `CCc1cc2c(N3CCc4c(cc(Cn5ccnc5)cc4-c4cn(C)nc4C(F)(F)F)C3=O)ccnc2c(OC)n1` + Cc1cccc(N(C)C(=O)C2C(O)CCN2c2nc(C)cc(C(F)(F)F)c2C#N)c1, for which the viability, T/C (as a rule, the ratio of treated to control) was 107%.

Regarding `COc1cc(C2c3cc4c(cc3C(OC3OC5COC(C)OC5C(O)C3O)C3COC(=O)C23)OCO4)cc(OC)c1O` (configuration not stated) + Nc1ccc(C#CCN(C(=O)Cc2ncc(C(F)(F)F)cc2C(F)(F)F)c2ccc(F)cc2)nn1, the viability, T/C is 78.2%.

Staying with this assay, now noted: second compound 3.16 µM; first compound 0.316 µM; stronger effect = lower value.
As to `CC1COCCN1c1cc(C2(S(C)(=N)=O)CC2)nc(-c2ccnc3[nH]ccc23)n1` (configuration not stated) + Cc1cccc(N(C)C(=O)C2C(O)CCN2c2nc(C)cc(C(F)(F)F)c2C#N)c1, the viability, T/C is 72.3%.

Consider `CCc1cc2c(N3CCc4c(cc(Cn5ccnc5)cc4-c4cn(C)nc4C(F)(F)F)C3=O)ccnc2c(OC)n1` + Cc1cccc(N(C)C(=O)C2C(O)CCN2c2nc(C)cc(C(F)(F)F)c2C#N)c1, for which the viability, T/C was 128%.

As for `COc1cc(C2c3cc4c(cc3C(OC3OC5COC(C)OC5C(O)C3O)C3COC(=O)C23)OCO4)cc(OC)c1O` (configuration not stated) + Nc1ccc(C#CCN(C(=O)Cc2ncc(C(F)(F)F)cc2C(F)(F)F)c2ccc(F)cc2)nn1, the viability, T/C is 72.2%.

Still in this assay, the particulars now being: second compound 3.16 µM; first compound 1 µM; stronger effect = lower value.
Regarding `CC1COCCN1c1cc(C2(S(C)(=N)=O)CC2)nc(-c2ccnc3[nH]ccc23)n1` (configuration not stated) + Cc1cccc(N(C)C(=O)C2C(O)CCN2c2nc(C)cc(C(F)(F)F)c2C#N)c1, the viability, T/C is 53.9%.

Regarding `CCc1cc2c(N3CCc4c(cc(Cn5ccnc5)cc4-c4cn(C)nc4C(F)(F)F)C3=O)ccnc2c(OC)n1` + Cc1cccc(N(C)C(=O)C2C(O)CCN2c2nc(C)cc(C(F)(F)F)c2C#N)c1, the viability, T/C was 115%.

`COc1cc(C2c3cc4c(cc3C(OC3OC5COC(C)OC5C(O)C3O)C3COC(=O)C23)OCO4)cc(OC)c1O` (configuration not stated) + Nc1ccc(C#CCN(C(=O)Cc2ncc(C(F)(F)F)cc2C(F)(F)F)c2ccc(F)cc2)nn1: the viability, T/C was 59.8%.

The same assay, now with this note: second compound 3.16 µM; first compound 3.16 µM; stronger effect = lower value.
As to `CC1COCCN1c1cc(C2(S(C)(=N)=O)CC2)nc(-c2ccnc3[nH]ccc23)n1` (configuration not stated) + Cc1cccc(N(C)C(=O)C2C(O)CCN2c2nc(C)cc(C(F)(F)F)c2C#N)c1, the viability, T/C is 44.5%.

Regarding `CCc1cc2c(N3CCc4c(cc(Cn5ccnc5)cc4-c4cn(C)nc4C(F)(F)F)C3=O)ccnc2c(OC)n1` + Cc1cccc(N(C)C(=O)C2C(O)CCN2c2nc(C)cc(C(F)(F)F)c2C#N)c1, the viability, T/C is 109%.

As for `COc1cc(C2c3cc4c(cc3C(OC3OC5COC(C)OC5C(O)C3O)C3COC(=O)C23)OCO4)cc(OC)c1O` (configuration not stated) + Nc1ccc(C#CCN(C(=O)Cc2ncc(C(F)(F)F)cc2C(F)(F)F)c2ccc(F)cc2)nn1, the viability, T/C is 68.1%.

The same assay, now with this note: second compound 3.16 µM; first compound 10 µM; stronger effect = lower value.
As for `CC1COCCN1c1cc(C2(S(C)(=N)=O)CC2)nc(-c2ccnc3[nH]ccc23)n1` (configuration not stated) + Cc1cccc(N(C)C(=O)C2C(O)CCN2c2nc(C)cc(C(F)(F)F)c2C#N)c1, the viability, T/C is 41.5%.

Consider `CCc1cc2c(N3CCc4c(cc(Cn5ccnc5)cc4-c4cn(C)nc4C(F)(F)F)C3=O)ccnc2c(OC)n1` + Cc1cccc(N(C)C(=O)C2C(O)CCN2c2nc(C)cc(C(F)(F)F)c2C#N)c1, for which the viability, T/C was 75.8%.

For `COc1cc(C2c3cc4c(cc3C(OC3OC5COC(C)OC5C(O)C3O)C3COC(=O)C23)OCO4)cc(OC)c1O` (configuration not stated) + Nc1ccc(C#CCN(C(=O)Cc2ncc(C(F)(F)F)cc2C(F)(F)F)c2ccc(F)cc2)nn1, the viability, T/C is 61%.

The assay is the same for the next values; noted with them: second compound 10 µM; first compound 0.0316 µM; stronger effect = lower value.
As to `CC1COCCN1c1cc(C2(S(C)(=N)=O)CC2)nc(-c2ccnc3[nH]ccc23)n1` (configuration not stated) + Cc1cccc(N(C)C(=O)C2C(O)CCN2c2nc(C)cc(C(F)(F)F)c2C#N)c1, the viability, T/C was 85.6%.

With `CCc1cc2c(N3CCc4c(cc(Cn5ccnc5)cc4-c4cn(C)nc4C(F)(F)F)C3=O)ccnc2c(OC)n1` + Cc1cccc(N(C)C(=O)C2C(O)CCN2c2nc(C)cc(C(F)(F)F)c2C#N)c1, the viability, T/C was 86.5%.

Turning to `COc1cc(C2c3cc4c(cc3C(OC3OC5COC(C)OC5C(O)C3O)C3COC(=O)C23)OCO4)cc(OC)c1O` (configuration not stated) + Nc1ccc(C#CCN(C(=O)Cc2ncc(C(F)(F)F)cc2C(F)(F)F)c2ccc(F)cc2)nn1, the viability, T/C is 86.7%.

The same assay, now with this note: second compound 10 µM; first compound 0.1 µM; stronger effect = lower value.
In the case of `CC1COCCN1c1cc(C2(S(C)(=N)=O)CC2)nc(-c2ccnc3[nH]ccc23)n1` (configuration not stated) + Cc1cccc(N(C)C(=O)C2C(O)CCN2c2nc(C)cc(C(F)(F)F)c2C#N)c1, the viability, T/C was 94.6%.

As for `CCc1cc2c(N3CCc4c(cc(Cn5ccnc5)cc4-c4cn(C)nc4C(F)(F)F)C3=O)ccnc2c(OC)n1` + Cc1cccc(N(C)C(=O)C2C(O)CCN2c2nc(C)cc(C(F)(F)F)c2C#N)c1, the viability, T/C was 88%.

For the compound `COc1cc(C2c3cc4c(cc3C(OC3OC5COC(C)OC5C(O)C3O)C3COC(=O)C23)OCO4)cc(OC)c1O` (configuration not stated) + Nc1ccc(C#CCN(C(=O)Cc2ncc(C(F)(F)F)cc2C(F)(F)F)c2ccc(F)cc2)nn1, the viability, T/C was 104%.

Still in this assay, the particulars now being: second compound 10 µM; first compound 0.316 µM; stronger effect = lower value.
Take `CC1COCCN1c1cc(C2(S(C)(=N)=O)CC2)nc(-c2ccnc3[nH]ccc23)n1` (configuration not stated) + Cc1cccc(N(C)C(=O)C2C(O)CCN2c2nc(C)cc(C(F)(F)F)c2C#N)c1: the viability, T/C was 89.4%.

Consider `CCc1cc2c(N3CCc4c(cc(Cn5ccnc5)cc4-c4cn(C)nc4C(F)(F)F)C3=O)ccnc2c(OC)n1` + Cc1cccc(N(C)C(=O)C2C(O)CCN2c2nc(C)cc(C(F)(F)F)c2C#N)c1, for which the viability, T/C was 102%.

Turning to `COc1cc(C2c3cc4c(cc3C(OC3OC5COC(C)OC5C(O)C3O)C3COC(=O)C23)OCO4)cc(OC)c1O` (configuration not stated) + Nc1ccc(C#CCN(C(=O)Cc2ncc(C(F)(F)F)cc2C(F)(F)F)c2ccc(F)cc2)nn1, the viability, T/C was 79.9%.

The same assay, now with this note: second compound 10 µM; first compound 1 µM; stronger effect = lower value.
Regarding `CC1COCCN1c1cc(C2(S(C)(=N)=O)CC2)nc(-c2ccnc3[nH]ccc23)n1` (configuration not stated) + Cc1cccc(N(C)C(=O)C2C(O)CCN2c2nc(C)cc(C(F)(F)F)c2C#N)c1, the viability, T/C is 48.8%.

Take `CCc1cc2c(N3CCc4c(cc(Cn5ccnc5)cc4-c4cn(C)nc4C(F)(F)F)C3=O)ccnc2c(OC)n1` + Cc1cccc(N(C)C(=O)C2C(O)CCN2c2nc(C)cc(C(F)(F)F)c2C#N)c1: the viability, T/C was 87.6%.

Consider `COc1cc(C2c3cc4c(cc3C(OC3OC5COC(C)OC5C(O)C3O)C3COC(=O)C23)OCO4)cc(OC)c1O` (configuration not stated) + Nc1ccc(C#CCN(C(=O)Cc2ncc(C(F)(F)F)cc2C(F)(F)F)c2ccc(F)cc2)nn1, for which the viability, T/C was 74.3%.

Still in this assay, the particulars now being: second compound 10 µM; first compound 3.16 µM; stronger effect = lower value.
As to `CC1COCCN1c1cc(C2(S(C)(=N)=O)CC2)nc(-c2ccnc3[nH]ccc23)n1` (configuration not stated) + Cc1cccc(N(C)C(=O)C2C(O)CCN2c2nc(C)cc(C(F)(F)F)c2C#N)c1, the viability, T/C is 50.1%.

As for `CCc1cc2c(N3CCc4c(cc(Cn5ccnc5)cc4-c4cn(C)nc4C(F)(F)F)C3=O)ccnc2c(OC)n1` + Cc1cccc(N(C)C(=O)C2C(O)CCN2c2nc(C)cc(C(F)(F)F)c2C#N)c1, the viability, T/C is 92.9%.

For `COc1cc(C2c3cc4c(cc3C(OC3OC5COC(C)OC5C(O)C3O)C3COC(=O)C23)OCO4)cc(OC)c1O` (configuration not stated) + Nc1ccc(C#CCN(C(=O)Cc2ncc(C(F)(F)F)cc2C(F)(F)F)c2ccc(F)cc2)nn1, the viability, T/C was 76.4%.

Still in this assay, the particulars now being: second compound 10 µM; first compound 10 µM; stronger effect = lower value.
As to `CC1COCCN1c1cc(C2(S(C)(=N)=O)CC2)nc(-c2ccnc3[nH]ccc23)n1` (configuration not stated) + Cc1cccc(N(C)C(=O)C2C(O)CCN2c2nc(C)cc(C(F)(F)F)c2C#N)c1, the viability, T/C is 38.8%.

Regarding `CCc1cc2c(N3CCc4c(cc(Cn5ccnc5)cc4-c4cn(C)nc4C(F)(F)F)C3=O)ccnc2c(OC)n1` + Cc1cccc(N(C)C(=O)C2C(O)CCN2c2nc(C)cc(C(F)(F)F)c2C#N)c1, the viability, T/C was 74.3%.

As for `COc1cc(C2c3cc4c(cc3C(OC3OC5COC(C)OC5C(O)C3O)C3COC(=O)C23)OCO4)cc(OC)c1O` (configuration not stated) + Nc1ccc(C#CCN(C(=O)Cc2ncc(C(F)(F)F)cc2C(F)(F)F)c2ccc(F)cc2)nn1, the viability, T/C is 62.9%.
